Reference: patent US4220644A, “7-Acylamino-3-(substituted tetrazolyl thiomethyl) cephalosporins” (SmithKline Corporation, priority 1976, dated 1980)
Values after ≈ are worked out from the molar mass of the structure shown.

Experiments:
[1] = tested on: Serra. Marc. ATCC 13880; experiment: MIC in vitro (Table 1), Serra. Marc. ATCC 13880; type: cell-based; settings: in vitro, Serra. Marc. ATCC 13880; read-out: MIC
Excerpt: (§1) Compound names corresponding to numbers are given in the experimental section. For comparative purposes, data for cephamandole, which is 7-mandelamido-3-(1-methyltetrazol-5-ylthiomethyl)-3-cephem-4-carboxylic acid, is also given in Tables 1 and 2.

[2] = tested on: Kleb. pneumo. SK 4200; experiment: MIC in vitro (Table 1), Kleb. pneumo. SK 4200; type: cell-based; settings: in vitro, Kleb. pneumo. SK 4200; read-out: MIC
Excerpt: as §1

[3] = tested on: S. villaluz; experiment: MIC in vitro (Table 1), S. villaluz; type: cell-based
Excerpt: as §1, with “The compounds of Formula I have antibacterial activity against both Gram-positive and Gram-negative organisms. […] Compound” for “Compound”

[4] = tested on: Kleb. pneumo. SK 1200; experiment: MIC in vitro (Table 1), Kleb. pneumo. SK 1200; type: cell-based; settings: read-out: MIC
Excerpt: as §1

[5] = tested on: Salmonella ATCC 12176; experiment: MIC in vitro (Table 1), Salmonella ATCC 12176; type: cell-based; settings: Salmonella, ATCC12176, in vitro
Excerpt: as §1, with “The compounds of Formula I have antibacterial activity against both Gram-positive and Gram-negative organisms. […] Compound” for “Compound”

[6] = tested on: Kleb. pneumo. 4200; experiment: In vivo mouse protection (Table 2), Kleb. pneumo. 4200
Excerpt: as §1

[7] = tested on: Entero. cloacae HH 31254; experiment: MIC in vitro (Table 1), Entero. cloacae HH 31254; type: cell-based; settings: Enterobacter cloacae, HH31254, in vitro, Entero. cloacae HH 31254; read-out: MIC
Excerpt: as §1

[8] = tested on: E. coli SK 12140; experiment: MIC in vitro (Table 1), E. coli SK 12140; type: cell-based; settings: Escherichia coli, SK12140, in vitro, read-out: MIC
Excerpt: as §1

[9] = tested on: Shigella HH 117; experiment: MIC in vitro (Table 1), Shigella HH 117; type: cell-based; settings: Shigella, HH117, in vitro
Excerpt: as §1, with “The compounds of Formula I have antibacterial activity against both Gram-positive and Gram-negative organisms. […] Compound” for “Compound”

[10] = tested on: E. coli HH 33779; experiment: MIC in vitro (Table 1), E. coli HH 33779; type: cell-based; settings: Escherichia coli, HH33779, in vitro, E. coli HH 33779; read-out: MIC
Excerpt: as §1

[11] = tested on: S. aureus HH 127; experiment: MIC in vitro (Table 1), S. aureus HH 127; type: cell-based; settings: Staphylococcus aureus, HH127, in vitro, S. aureus HH 127; read-out: MIC
Excerpt: as §1

[12] = tested on: S. aureus SK 23390; experiment: MIC in vitro (Table 1), S. aureus SK 23390; type: cell-based; settings: Staphylococcus aureus, SK23390, in vitro, S. aureus SK 23390; read-out: MIC
Excerpt: as §1

[13] = tested on: Proteus morgani 179; experiment: MIC in vitro (Table 1), Proteus morgani 179; type: cell-based; settings: read-out: MIC
Excerpt: as §1

[14] = tested on: Strep. Faecalis HH 34358; experiment: MIC in vitro (Table 1), Strep. Faecalis HH 34358; type: cell-based; settings: Enterococcus faecalis, in vitro, Strep. Faecalis HH 34358; read-out: MIC
Excerpt: as §1

[15] = tested on: E. coli 12140; experiment: In vivo mouse protection (Table 2), E. coli 12140
Excerpt: as §1

[16] = tested on: Entero. aerog. ATCC 13048; experiment: MIC in vitro (Table 1), Entero. aerog. ATCC 13048; type: cell-based; settings: in vitro, Entero. aerog. ATCC 13048; read-out: MIC
Excerpt: as §1

[17] = tested on: Pseudo. sp. HH 63; experiment: MIC in vitro (Table 1), Pseudo. sp. HH 63; type: cell-based
Excerpt: as §1, with “The compounds of Formula I have antibacterial activity against both Gram-positive and Gram-negative organisms. […] Compound” for “Compound”

Compound: Cn1nnnc1SCC1=C(C(=O)O)N2C(=O)C(NC(=O)C(O)c3ccccc3)[C@H]2SC1 (stereo partly shown) [cephamandole, 7-mandelamido-3-(1-methyltetrazol-5-ylthiomethyl)-3-cephem-4-carboxylic acid, reference compound]
- MIC [1]: 13 µg/mL (≈ 28.1 µM)
- MIC [2]: 1.1 µg/mL (≈ 2.38 µM)
- MIC [3]: 8 µg/mL (≈ 17.3 µM)
- MIC [4]: 0.6 µg/mL (≈ 1.3 µM)
- MIC [5]: 0.6 µg/mL (≈ 1.3 µM)
- ED50 ([6]; po, Kleb. pneumo. 4200, p.o.): > 50 mg/kg
- ED50 ([6]; sc, Kleb. pneumo. 4200, s.c.): 0.96 mg/kg
- MIC [7]: 0.7 µg/mL (≈ 1.51 µM)
- MIC [8]: 1.1 µg/mL (≈ 2.38 µM)
- MIC [9]: 0.2 µg/mL (≈ 0.432 µM)
- MIC [10]: 2.6 µg/mL (≈ 5.62 µM)
- MIC [11]: 1 µg/mL (≈ 2.16 µM)
- MIC [12]: 0.6 µg/mL (≈ 1.3 µM)
- MIC [13]: 1.3 µg/mL (≈ 2.81 µM)
- MIC [14]: 2.3 µg/mL (≈ 4.97 µM)
- ED50 ([15]; Escherichia coli, 12140, po, E. coli 12140, p.o.): 28 mg/kg
- ED50 ([15]; Escherichia coli, 12140, sc, E. coli 12140, s.c.): < 2 mg/kg
- MIC [16]: 2.9 µg/mL (≈ 6.27 µM)
- MIC [17]: > 200 µg/mL
